Measured values published in patent US20230391739A1, “ARYL DERIVATIVES FOR TREATING TRPM3 MEDIATED DISORDERS” (Katholieke Universiteit Leuven, priority 2020, published 2023).

What follows are compounds tested against T1, mouse TRPM3α2 (mTRPM3) ion channel (Mus musculus, UniProt J9SQF3) (assay: TRPM3 ion channel driven Ca2+ uptake, Fluo-4 AM assay, PS-stimulated (mTRPM3)). Conditions: TRPM3 overexpressing flip-in HEK293 cells stimulated with Pregnenolone sulfate (PS) 50 μM, activity ranges A, B, C.
T1 construct: expressed in transfected cells; host or cells: flip-in HEK293
Type: cell-based
Procedure: Monitoring the TRPM3 Ion Channel Driven Ca^2+ Uptake.
In order to monitor the inhibition of the mouse TRPM3α2 (mTRPM3) ion channel by the compounds of the invention, a cellular system making use of an mTRPM3alpha2 or hTRPM3 overexpressing cell line (flip-in HEK293) was used. The TRPM3 channel was stimulated/opened with Pregnenolone sulfate (PS) (50 μM) which results in Ca^2+ influx.
For mTRPM3, the intracellular Ca^2+ was measured with a Calcium responsive dye, Fluor-4 AM ester (Invitrogen). Cells were cultured until a confluence of 80-90%, washed with Versene (Invitrogen) and detached from the surface by a short incubation with 0.05% Trypsin (Invitrogen). The trypsination process was stopped by the addition of complete cell culture medium (DMEM, glutamax, 10% FCS, NEAA, Pen-Strep). Cells were collected and resuspended in Krebs buffer without Calcium at RT.
Prior the cell seeding (±2000 cells/well into a black, 384 well plate (Greiner)) the diluted compound was added in the assay plate, together with the PS dissolved in Krebs buffer containing Calcium. […] Directly after cell addition the plates were read on an Envision fluorescence reader (Perkin Elmer) by an Excitation of 485 nm and emission at 535 nm.
Channel inhibition was calculated compared to a non-PS stimulated control versus a condition stimulated with PS (50 μM) with vehicle. The ability of the compounds of the invention to inhibit this activity was determined as: Percentage inhibition=[1−((RFU determined for sample with test compound present−RFU determined for sample with positive control inhibitor) divided by (RFU determined in the presence of vehicle−RFU determined for sample with positive control inhibitor))]*100.
The activities of the Example compounds tested are depicted in the table below.

T1 sequence (J9SQF3 1-1709 isoform J9SQF3-12): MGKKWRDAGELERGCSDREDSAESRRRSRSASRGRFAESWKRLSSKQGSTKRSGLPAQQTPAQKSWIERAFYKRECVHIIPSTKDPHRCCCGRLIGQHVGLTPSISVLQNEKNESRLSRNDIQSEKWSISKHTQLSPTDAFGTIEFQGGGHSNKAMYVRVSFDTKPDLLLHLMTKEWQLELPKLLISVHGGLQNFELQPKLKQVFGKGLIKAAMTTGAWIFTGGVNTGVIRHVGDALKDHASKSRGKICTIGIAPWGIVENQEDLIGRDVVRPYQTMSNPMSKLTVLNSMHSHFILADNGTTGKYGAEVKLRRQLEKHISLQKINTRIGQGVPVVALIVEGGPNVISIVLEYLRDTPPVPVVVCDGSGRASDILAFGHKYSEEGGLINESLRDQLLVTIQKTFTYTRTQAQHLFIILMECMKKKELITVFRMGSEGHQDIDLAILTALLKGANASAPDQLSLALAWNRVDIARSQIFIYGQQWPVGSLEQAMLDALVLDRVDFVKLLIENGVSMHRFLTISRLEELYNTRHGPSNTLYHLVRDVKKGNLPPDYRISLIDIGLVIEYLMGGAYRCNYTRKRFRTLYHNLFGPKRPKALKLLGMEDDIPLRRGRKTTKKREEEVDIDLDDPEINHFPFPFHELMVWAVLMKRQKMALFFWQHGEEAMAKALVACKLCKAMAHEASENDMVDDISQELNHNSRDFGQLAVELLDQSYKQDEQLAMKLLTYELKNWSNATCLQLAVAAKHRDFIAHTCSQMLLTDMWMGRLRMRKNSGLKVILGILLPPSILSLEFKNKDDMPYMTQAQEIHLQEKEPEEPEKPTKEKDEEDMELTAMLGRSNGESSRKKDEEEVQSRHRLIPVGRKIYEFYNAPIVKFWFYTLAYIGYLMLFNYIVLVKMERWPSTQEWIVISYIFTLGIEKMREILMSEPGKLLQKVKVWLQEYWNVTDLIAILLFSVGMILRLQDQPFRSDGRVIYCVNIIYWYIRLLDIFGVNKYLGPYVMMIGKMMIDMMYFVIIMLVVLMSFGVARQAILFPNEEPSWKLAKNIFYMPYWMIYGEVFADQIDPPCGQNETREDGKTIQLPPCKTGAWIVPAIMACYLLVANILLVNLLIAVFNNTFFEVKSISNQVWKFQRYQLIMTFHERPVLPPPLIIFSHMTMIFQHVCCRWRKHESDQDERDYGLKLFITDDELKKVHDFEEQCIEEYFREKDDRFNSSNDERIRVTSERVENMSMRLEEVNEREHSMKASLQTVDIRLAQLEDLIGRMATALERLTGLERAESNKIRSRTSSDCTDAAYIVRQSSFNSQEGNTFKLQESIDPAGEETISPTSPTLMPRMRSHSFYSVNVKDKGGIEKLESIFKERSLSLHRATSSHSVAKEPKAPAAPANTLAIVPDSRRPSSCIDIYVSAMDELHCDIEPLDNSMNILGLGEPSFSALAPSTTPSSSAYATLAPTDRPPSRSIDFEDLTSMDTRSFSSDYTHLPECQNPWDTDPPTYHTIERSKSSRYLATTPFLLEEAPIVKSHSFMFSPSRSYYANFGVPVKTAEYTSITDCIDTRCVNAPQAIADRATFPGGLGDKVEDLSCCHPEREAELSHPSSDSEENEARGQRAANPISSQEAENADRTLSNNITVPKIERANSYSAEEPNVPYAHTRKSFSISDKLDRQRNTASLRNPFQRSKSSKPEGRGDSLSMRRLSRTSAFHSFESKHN

Structure (SMILES) | IC50 [nM]
Cc1oc2ccc(OCc3ccccc3)cc2c1C(=O)NC1(C(=O)O)CCOCC1 [Cpd 193, 4-(5-(benzyloxy)-2-methylbenzofuran-3-carboxamido)tetrahydro-2H-pyran-4-carboxylic acid] | 1000 to 20000
Cc1oc2ccc(COc3ccccc3F)cc2c1C(=O)NC(C)(C)CO [Cpd 319, 5-((2-fluorophenoxy)methyl)-N-(1-hydroxy-2-methylpropan-2-yl)-2-methylbenzofuran-3-carboxamide] | 1000 to 20000
Cc1oc2ccc(OCc3ccccc3F)cc2c1C(=O)NC1(CO)CCNC1=O (single isomer, unassigned) [Cpd 334-En 2] | < 1000
Cc1oc2ccc(OCc3c(F)cccc3Cl)cc2c1C(=O)O [Cpd 021, 5-((2-chloro-6-fluorobenzyl)oxy)-2-methylbenzofuran-3-carboxylic acid] | 1000 to 20000
Cc1oc2ccc(OCc3ccccc3)cc2c1C(=O)NC1CCCC1 [Cpd 046, 5-(benzyloxy)-N-cyclopentyl-2-methylbenzofuran-3-carboxamide] | < 1000
Cc1ccc(COc2ccc3oc(C)c(C(=O)O)c3c2)cc1 [Cpd 006, 2-methyl-5-((4-methylbenzyl)oxy)benzofuran-3-carboxylic acid] | 1000 to 20000
Cc1oc2ccc(OCc3ccccc3F)cc2c1C(=O)NC(C)(C)C(N)=O [Cpd 315, N-(1-amino-2-methyl-1-oxopropan-2-yl)-5-((2-fluorobenzyl)oxy)-2-methylbenzofuran-3-carboxamide] | < 1000
Cc1oc2ccc(OCc3ccccc3)cc2c1C(=O)N(C)C1CCN(C)CC1 [Cpd 156, 5-(benzyloxy)-N,2-dimethyl-N-(1-methylpiperidin-4-yl)benzofuran-3-carboxamide] | 1000 to 20000
Cc1oc2ccc(OCc3cccc(F)c3F)cc2c1C(=O)N[C@H]1CCNC1 [Cpd 135, (S)-5-((2,3-difluorobenzyl)oxy)-2-methyl-N-(pyrrolidin-3-yl)benzofuran-3-carboxamide] | < 1000
Cc1oc2ccc(OCc3ccc(F)cc3)cc2c1C(=O)O [Cpd 009, 5-((4-fluorobenzyl)oxy)-2-methylbenzofuran-3-carboxylic acid] | 1000 to 20000
Cc1oc2ccc(OCc3cccc(C(F)(F)F)c3)cc2c1C(=O)N[C@H]1CCNC1 [Cpd 204, (S)-2-methyl-N-(pyrrolidin-3-yl)-5-((3-(trifluoromethyl)benzyl)oxy)benzofuran-3-carboxamide] | < 1000
Cc1oc2ccc(OCc3ccccc3)cc2c1C(=O)NO [Cpd 036, 5-(benzyloxy)-N-hydroxy-2-methylbenzofuran-3-carboxamide] | < 1000
Cc1oc2c(F)cc(OCc3ccccc3)cc2c1C(=O)NC1CNCC1(F)F (single isomer, unassigned) [Cpd 306-En 2] | 1000 to 20000
Cc1oc2ccc(OCc3ccccc3)cc2c1C(=O)N[C@@H]1CCNC1=O [Cpd 070, 5-(benzyloxy)-2-methyl-N-(2-oxopyrrolidin-3-yl)benzofuran-3-carboxamide] | < 1000
Cc1oc2ccc(OCc3ccccc3)cc2c1C(=O)NC1(CO)CCOCC1 [Cpd 167, 5-(benzyloxy)-N-(4-(hydroxymethyl)tetrahydro-2H-pyran-4-yl)-2-methylbenzofuran-3-carboxamide] | < 1000
Cc1oc2ccc(OCc3ccccc3)cc2c1C(=O)NC1(CN)CCC1 [Cpd 082, N-(1-(aminomethyl)cyclobutyl)-5-(benzyloxy)-2-methylbenzofuran-3-carboxamide] | < 1000
Cc1oc2ccc(OC(C)c3ccccc3)cc2c1C(=O)NC1(CO)CCOCC1 (single isomer, unassigned) [Cpd 308-En 1, N-(4-(hydroxymethyl)tetrahydro-2H-pyran-4-yl)-2-methyl-5-(1-phenylethoxy)benzofuran-3-carboxamide] | < 1000
COc1ccccc1COc1ccc2oc(C)c(C(=O)NC3CCNC3=O)c2c1 (stereo not shown) [Cpd 164, 5-((2-methoxybenzyl)oxy)-2-methyl-N-(2-oxopyrrolidin-3-yl)benzofuran-3-carboxamide] | < 1000
Cc1oc2ccc(OCc3ccccc3F)cc2c1C(=O)NC1(C(N)=O)CC1 [Cpd 326, N-(1-carbamoylcyclopropyl)-5-((2-fluorobenzyl)oxy)-2-methylbenzofuran-3-carboxamide] | < 1000
Cc1oc2ccc(OCc3ccccc3F)cc2c1C(=O)N[C@H]1CCNC1 [Cpd 095, (S)-5-((2-fluorobenzyl)oxy)-2-methyl-N-(pyrrolidin-3-yl)benzofuran-3-carboxamide] | < 1000

Structure (SMILES) | IC50 [nM]
Cc1oc2ccc(OCc3ccccc3)cc2c1C(=O)NCC1CCC(=O)N1 (stereo not shown) [Cpd 112, 5-(benzyloxy)-2-methyl-N-((5-oxopyrrolidin-2-yl)methyl)benzofuran-3-carboxamide] | < 1000
Cc1oc2ccc(OCc3ccccc3)cc2c1C(=O)NC1CCOCC1 [Cpd 088, 5-(benzyloxy)-2-methyl-N-(tetrahydro-2H-pyran-4-yl)benzofuran-3-carboxamide] | < 1000
Cc1oc2ccc(OC(CN(C)C)c3ccccc3)cc2c1C(=O)N[C@@H](CO)C(N)=O (single isomer, unassigned) [Cpd 347-En 1] | 1000 to 20000
Cc1oc2ccc(OCc3ccccc3Cl)cc2c1C(=O)O [Cpd 018, 5-((2-chlorobenzyl)oxy)-2-methylbenzofuran-3-carboxylic acid] | 1000 to 20000
Cc1oc2ccc(OCc3c(F)cccc3F)cc2c1C(=O)NC1CCNC1=O (stereo not shown) [Cpd 172, 5-((2,6-difluorobenzyl)oxy)-2-methyl-N-(2-oxopyrrolidin-3-yl)benzofuran-3-carboxamide] | < 1000
COCC(Oc1ccc2oc(C)c(C(=O)N[C@@H](CO)C(N)=O)c2c1)c1ccccc1 (single isomer, unassigned) [Cpd 346-En 2] | < 1000
Cc1oc2ccc(OCc3ccccc3)cc2c1C(=O)NCCN(C)C [Cpd 055, 5-(benzyloxy)-N-(2-(dimethylamino)ethyl)-2-methylbenzofuran-3-carboxamide] | 1000 to 20000
Cc1oc2ccc(OCc3ccccc3)cc2c1C(=O)Nc1cnccn1 [Cpd 061, 5-(benzyloxy)-2-methyl-N-(pyrazin-2-yl)benzofuran-3-carboxamide] | < 1000
Cc1oc2ccc(OCc3ccccc3F)cc2c1C(=O)NC(C)(CO)CO [Cpd 312, N-(1,3-dihydroxy-2-methylpropan-2-yl)-5-((2-fluorobenzyl)oxy)-2-methylbenzofuran-3-carboxamide] | < 1000
Cc1oc2ccc(OCc3ccccc3)cc2c1C(=O)NCc1ccccc1 [Cpd 098, N-benzyl-5-(benzyloxy)-2-methylbenzofuran-3-carboxamide] | > 20000
Cc1oc2ccc(OCc3ccccc3)cc2c1C(=O)NC1CCC(C)CC1 (stereo not shown) [Cpd 106, 5-(benzyloxy)-2-methyl-N-(4-methylcyclohexyl)benzofuran-3-carboxamide] | > 20000
Cc1oc2ccc(OCc3ccccc3)cc2c1C(=O)N[C@@H]1C[C@H]2CCC[C@@H](C1)N2 [Cpd 184, 5-(benzyloxy)-N-((1R,3s,5S)-9-azabicyclo[3.3.1]nonan-3-yl)-2-methylbenzofuran-3-carboxamide] | < 1000
Cc1oc2ccc(OC(C)c3ccccc3)cc2c1C(=O)NC1(C(N)=O)CCC1 (single isomer, unassigned) [Cpd 343-En 1, N-(1-carbamoylcyclobutyl)-2-methyl-5-(1-phenylethoxy)benzofuran-3-carboxamide] | < 1000
Cc1oc2ccc(OCc3ccc(F)cc3Cl)cc2c1C(=O)O [Cpd 022, 5-((2-chloro-4-fluorobenzyl)oxy)-2-methylbenzofuran-3-carboxylic acid] | 1000 to 20000
Cc1oc2c(C#N)cc(OCc3ccccc3)cc2c1C(=O)NC1CNCC1(F)F (single isomer, unassigned) [Cpd 305-En 2, 5-(benzyloxy)-7-cyano-N-(4,4-difluoropyrrolidin-3-yl)-2-methylbenzofuran-3-carboxamide] | > 20000
Cc1oc2ccc(OCc3cccc(OC(F)(F)F)c3)cc2c1C(=O)O [Cpd 028, 2-methyl-5-((3-(trifluoromethoxy)benzyl)oxy)benzofuran-3-carboxylic acid] | > 20000
Cc1oc2ccc(OCc3ccccc3)cc2c1C(=O)N[C@H]1C[C@@H]2CN(C(=O)OC(C)(C)C)C[C@@H]2C1 [Cpd 259, tert-butyl trans-5-(5-(benzyloxy)-2-methylbenzofuran-3-carboxamido)hexahydrocyclopenta-[c]pyrrole-2(1H)-carboxylate] | 1000 to 20000
CCN1CCC(NC(=O)c2c(C)oc3ccc(OCc4ccccc4)cc23)CC1 [Cpd 151, 5-(benzyloxy)-N-(1-ethylpiperidin-4-yl)-2-methylbenzofuran-3-carboxamide] | < 1000
Cc1oc2ccc(OCc3ccccc3)cc2c1C(=O)N[C@H]1C[C@H]2CC[C@@H](C1)N2 [Cpd 143, 5-(benzyloxy)-N-((1R,3r,5S)-8-azabicyclo[3.2.1]octan-3-yl)-2-methylbenzofuran-3-carboxamide] | < 1000
CN1CCC(NC(=O)c2c(C3CCCC3)oc3ccc(OCc4ccccc4)cc23)CC1 [Cpd 221, 5-(benzyloxy)-2-cyclopentyl-N-(1-methylpiperidin-4-yl)benzofuran-3-carboxamide] | > 20000
